Experimental data reported in ChEMBL document CHEMBL4414576, “Recent advancements in mechanistic studies and structure activity relationship of FoF1 ATP synthase inhibitor as antimicrobial agent” (Eur J Med Chem, 2019).
In brackets after ≈: the same amount, converted by molar mass.

Experiments:
Escherichia coli [1] = test: Inhibition of F1F0-ATP synthase in Escherichia coli after 60 mins relative to control; set-up: concentration or dose not given beside the values
[2] = Inhibition of F1F0-ATP synthase in Escherichia coli after 60 mins
Escherichia coli [3] = test: Inhibition of F1F0-ATP synthase in Escherichia coli relative to control; set-up: concentration or dose not given beside the values; conditions: concentration not given here
[4] = system: Mycobacterium tuberculosis; test: Antimicrobial activity against Mycobacterium tuberculosis H37Rv after 5 days; format: functional
ATP synthase = test: Inhibition of ATP synthase in Mycobacterium tuberculosis H37Rv; format: protein-complex assay
[5] = Inhibition of F1F0-ATP synthase in Escherichia coli

Row | Molecule | inhibition (Escherichia coli [1]) [%] | inhibition (Escherichia coli [3]) [%] | also measured
1 | O=c1cc(-c2ccc(O)c(O)c2)oc2cc(O)cc(O)c12 | 0 to 20 | – | –
2 | COc1cc(C2Oc3cc([C@H]4Oc5cc(O)cc(O)c5C(=O)[C@@H]4O)ccc3OC2CO)ccc1O (some centres undefined) [SILIBININ] | 100 | – | IC50 [2]: 340 µM
3 | Oc1ccccc1O | – | 40 | –
4 | O=c1c(O)c(-c2ccc(O)cc2)oc2cc(O)cc(O)c12 | 40 to 60 | – | –
5 | CCN(CC)Cc1cc(N(c2cc(C)nc3cc(Cl)ccc23)S(=O)(=O)c2ccc(Cl)s2)ccc1O | – | – | MIC [4]: 6.25 µg/mL (≈ 11.4 µM); IC50 (ATP synthase): 0.36 to 1.83 µM
6 | Oc1cc2cc3ccccc3cc2cc1O | – | 22 | –
7 | Oc1cccc(O)c1 | – | 20 | –
8 | O=c1cc(-c2ccccc2)oc2cc(O)c(O)c(O)c12 [BAICALEIN] | 100 | – | IC50 [2]: 290 µM
9 | CCN(CC)Cc1cc(N(c2cc(C)nc3cc(Cl)ccc23)S(=O)(=O)c2ccc([N+](=O)[O-])cc2)ccc1O | – | – | MIC [4]: 6.25 µg/mL (≈ 11.3 µM); IC50 (ATP synthase): 0.36 to 1.83 µM
10 | Oc1ccc(/C=N/c2cccc(O)c2)cc1 | – | 100 | IC50 [5]: 9 µM
11 | Oc1ccc(/N=C/c2ccccc2O)cc1 | – | 100 | IC50 [5]: 5 µM
12 | O=c1cc(-c2ccc(O)cc2)oc2cc(O)cc(O)c12 | 40 to 60 | – | –
13 | SILYMARIN | – | – | IC50 [2]: 110 µM
14 | NC12CC3CC(CC(C3)C1)C2 [AMANTADINE] | 100 | – | IC50 [2]: 2500 µM
15 | Oc1cccc(/C=N/c2cccc(O)c2)c1 | – | 100 | IC50 [5]: 2.25 µM
16 | O=c1c(-c2ccc(O)cc2)coc2cc(O)ccc12 | 0 to 20 | – | –
17 | Oc1cccc(/N=C/c2ccccc2O)c1 | – | 85 | IC50 [5]: 5.25 µM

Row | Molecule | inhibition (Escherichia coli [1]) [%] | inhibition (Escherichia coli [3]) [%] | also measured
18 | Oc1cc2cc3ccccc3cc2c(O)c1O | – | 30 | –
19 | O=c1c(O)c(-c2ccccc2)oc2cc(O)cc(O)c12 | 0 to 20 | – | –
20 | Oc1ccccc1/C=N/c1ccccc1O | – | 95 | IC50 [5]: 7 µM
21 | C[C@@H]1O[C@@H](OC[C@H]2O[C@@H](Oc3c(-c4ccc(O)c(O)c4)oc4cc(O)cc(O)c4c3=O)[C@H](O)[C@@H](O)[C@@H]2O)[C@H](O)[C@H](O)[C@H]1O | 40 to 60 | – | –
22 | Oc1ccc(O)cc1 | – | 80 | –
23 | O=[N+]([O-])c1cc(O)ccc1/N=C/c1ccccc1O | – | 100 | IC50 [5]: 6 µM
24 | CC[C@H](C)[C@H](NC(=O)CN)C(=O)NCC(=O)N[C@@H](C)C(=O)N[C@H](C(=O)N[C@@H](CC(C)C)C(=O)N[C@@H](CCCCN)C(=O)N[C@H](C(=O)N[C@@H](CC(C)C)C(=O)N[C@H](C(=O)N[C@H](C(=O)NCC(=O)N[C@@H](CC(C)C)C(=O)N1CCC[C@H]1C(=O)N[C@@H](C)C(=O)N[C@@H](CC(C)C)C(=O)N[C@H](C(=O)N[C@@H](CO)C(=O)N[C@@H](Cc1c[nH]c2ccccc12)C(=O)N[C@H](C(=O)N[C@@H](CCCCN)C(=O)N[C@@H](CCCNC(=N)N)C(=O)N[C@@H](CCCCN)C(=O)N[C@@H](CCCNC(=N)N)C(=O)N[C@@H](CCC(N)=O)C(=O)N[C@@H](CCC(N)=O)C(N)=O)[C@@H](C)CC)[C@@H](C)CC)[C@@H](C)O)[C@@H](C)O)C(C)C)C(C)C | – | 78 | –
25 | CC(N)C12CC3CC(CC(C3)C1)C2 (centres undefined) [RIMANTADINE] | 100 | – | IC50 [2]: 2000 µM
26 | Oc1cc(O)c2c(c1)OC(c1ccc(O)c(O)c1)C(O)C2 (centres undefined) [CATECHIN] | 100 | – | IC50 [2]: 4000 µM
27 | O=c1c(-c2ccc(O)cc2)coc2cc(O)cc(O)c12 | 40 to 60 | – | –
28 | O=c1cc(-c2ccccc2)oc2cc(O)cc(O)c12 | 40 to 60 | – | –
29 | O=c1c(O)c(-c2ccc(O)cc2O)oc2cc(O)cc(O)c12 [MORIN] | 100 | – | IC50 [2]: 70 µM
30 | O=[N+]([O-])c1ccc(/N=C/c2ccccc2O)c(O)c1 | – | 100 | IC50 [5]: 5 µM
31 | COc1ccc([C@@H]2CC(=O)c3c(O)cc(O[C@@H]4O[C@H](CO[C@@H]5O[C@@H](C)[C@H](O)[C@@H](O)[C@H]5O)[C@@H](O)[C@H](O)[C@H]4O)cc3O2)cc1O | 40 to 60 | – | –
32 | COc1ccc(-c2cc(=O)c3c(O)cc(O[C@@H]4O[C@H](CO[C@@H]5O[C@@H](C)[C@H](O)[C@@H](O)[C@H]5O)[C@@H](O)[C@H](O)[C@H]4O)cc3o2)cc1O | 40 to 60 | – | –
33 | Oc1cccc(/C=N/c2ccccc2O)c1 | – | 85 | IC50 [5]: 9 µM
